# Test results reported in patent US9284345B2 (priority 2007, dated 2016).
# Read-outs that look alike come from different tables or passages of the source.
# Experiments:
# in vivo = settings: male, Sprague-Dawley, rat, in vivo, po, 0.5 mg
# Immature Rat CX + DHT = assay: animal or person; assay type: in vivo; settings: for change in vivo at 0.1 mg / change in vivo at 0.5 mg: Rattus norvegicus, 168 h
# Immature Rat CX = settings: sc
# [1] = tested on: CX+ 4-DIONE in Mature Rat; assay: Systemic antiandrogenic activity in mature male rats; assay type: in vivo; settings: for inhibition of prostate weight (4-dione stimulated): 5 mg/rat
# Intact Rat = assay: In vivo activity in intact rat (organ and muscle weight); settings: rat, in vivo
# [2] = po, read-out: In Vivo Antagonist % Change vs DHT (CX = −100%) SV
# [3] = po, read-out: In Vivo Antagonist % Change vs DHT (CX = −100%) VP
Compound,AUC (in vivo) [ng·h/mL],change in vivo at 0.1 mg (Immature Rat CX + DHT; [2]) [%],change in vivo at 0.5 mg (Immature Rat CX + DHT; [2]) [%],change in vivo at 0.1 mg (Immature Rat CX + DHT; [3]) [%],change in vivo at 0.5 mg (Immature Rat CX + DHT; [3]) [%],"inhibition of DHT-stimulated seminal vesicle weight (Immature Rat CX + DHT; rat, in vivo) [%]","inhibition of DHT-stimulated ventral prostate weight (Immature Rat CX + DHT; rat, in vivo) [%]","In Vivo Anti-A Rat CX + DHT % change vs DHT (CX CONT = −100%) Bulbo (Immature Rat CX + DHT; rat, in vivo, po)","In Vivo Anti-A Rat CX + DHT % change vs DHT (CX CONT = −100%) SV (Immature Rat CX + DHT; rat, in vivo, po)","In Vivo Anti-A Rat CX + DHT % change vs DHT (CX CONT = −100%) VP (Immature Rat CX + DHT; rat, in vivo, po)",In Vivo Agonist % Change vs CX (DHT = +100%) SV (Immature Rat CX),In Vivo Agonist % Change vs CX (DHT = +100%) VP (Immature Rat CX),% change vs 4-DIONE Cont (CX Cont = −100% inh) Seminal Vesicles ([1]; 1 mg/rat/per os/ID) [%],% change vs 4-DIONE Cont (CX Cont = −100% inh) Ventral Prostate ([1]; 1 mg/rat/per os/ID) [%],inhibition of prostate weight (4-dione stimulated) [1] [%],% change vs 4-DIONE Cont (CX Cont = −100% inh) Seminal Vesicles ([1]; 5 mg/rat/per os/ID) [%],% change vs 4-DIONE Cont (CX Cont = −100% inh) Ventral Prostate ([1]; 5 mg/rat/per os/ID) [%],In Vivo Intact Rat % change vs Intact CONT (Intact CONT = +100%; CX CONT = 0%) Bulbo (Intact Rat),In Vivo Intact Rat % change vs Intact CONT (Intact CONT = +100%; CX CONT = 0%) SZ (Intact Rat),In Vivo Intact Rat % change vs Intact CONT (Intact CONT = +100%; CX CONT = 0%) VP (Intact Rat)
"CC(C)C(=O)Nc1ccc([N+](=O)[O-])c(C(F)(F)F)c1 [Flutamide, reference compound]",39 ± 4,-62 ± 4,-83,-26 ± 2,-48,83,48,[−68 ± 2] %,[−83 ± 1] %,[−48 ± 1] %,"(0; 0.2 mg, sc) %","(1; 0.2 mg, sc) %",−102 ± 8,−47 ± 7,70,−106 ± 6,−70 ± 3,+42 ± 6%,+33 ± 4%,+75 ± 4%
CC(O)(CS(=O)(=O)c1ccc(F)cc1)C(=O)Nc1ccc(C#N)c(C(F)(F)F)c1 (stereo not drawn) [bicalutamide],8500 ± 386,–,-86,–,-51,–,–,–,–,–,"(0; 0.2 mg, sc) %","(0; 0.2 mg, sc) %",−82 ± 9,−44 ± 7,64,−90 ± 6,−64 ± 4,–,–,–
